Numbers after ± are expanded uncertainties.
Test: xn = mol fraction of the nth substance listed
Conditions: 101 kPa, Liquid

CC(=O)N(C)C [N,N-dimethylethanamide] + CC#N
mass density [kg/m3]
Conditions | 293.15 K | 298.15 K | 303.15 K | 308.15 K | 313.15 K | 318.15 K
x2 = 0 | 941 ± 0.9 | 936.5 ± 0.9 | 932 ± 1 | 927.6 ± 1 | 923.1 ± 1 | 918.6 ± 1.1
x2 = 0.0815 | 934.2 ± 0.9 | 929.7 ± 0.9 | 925.2 ± 1 | 920.7 ± 1 | 916.2 ± 1 | 911.7 ± 1.1
x2 = 0.1674 | 926.3 ± 0.9 | 921.8 ± 0.9 | 917.3 ± 0.9 | 912.8 ± 1 | 908.3 ± 1 | 903.9 ± 1.1
x2 = 0.2386 | 919.2 ± 0.9 | 914.7 ± 0.9 | 910.2 ± 0.9 | 905.7 ± 1 | 901.2 ± 1 | 896.8 ± 1.1
x2 = 0.3133 | 911.2 ± 0.8 | 906.7 ± 0.9 | 902.2 ± 0.9 | 897.7 ± 1 | 893.2 ± 1 | 888.8 ± 1
x2 = 0.3689 | 904.8 ± 0.8 | 900.3 ± 0.9 | 895.8 ± 0.9 | 891.3 ± 1 | 886.8 ± 1 | 882.4 ± 1
x2 = 0.4223 | 898.3 ± 0.8 | 893.8 ± 0.9 | 889.3 ± 0.9 | 884.8 ± 0.9 | 880.3 ± 1 | 875.8 ± 1
x2 = 0.4722 | 891.8 ± 0.8 | 887.3 ± 0.9 | 882.7 ± 0.9 | 878.2 ± 0.9 | 873.7 ± 1 | 869.2 ± 1
x2 = 0.5387 | 882.5 ± 0.8 | 877.9 ± 0.8 | 873.3 ± 0.9 | 868.8 ± 0.9 | 864.2 ± 1 | 859.7 ± 1
x2 = 0.581 | 876.1 ± 0.8 | 871.5 ± 0.8 | 866.9 ± 0.9 | 862.3 ± 0.9 | 857.7 ± 1 | 853.1 ± 1
x2 = 0.6379 | 866.9 ± 0.8 | 862.2 ± 0.8 | 857.6 ± 0.9 | 852.9 ± 0.9 | 848.3 ± 1 | 843.6 ± 1
x2 = 0.6794 | 859.7 ± 0.8 | 855 ± 0.8 | 850.2 ± 0.9 | 845.5 ± 0.9 | 840.8 ± 0.9 | 836.1 ± 1
x2 = 0.7236 | 851.5 ± 0.8 | 846.7 ± 0.8 | 841.9 ± 0.9 | 837.1 ± 0.9 | 832.3 ± 0.9 | 827.5 ± 1
x2 = 0.8071 | 833.9 ± 0.7 | 829 ± 0.8 | 824.1 ± 0.8 | 819.2 ± 0.9 | 814.3 ± 0.9 | 809.4 ± 1
x2 = 0.8776 | 817 ± 0.7 | 812 ± 0.8 | 807 ± 0.8 | 802 ± 0.8 | 797 ± 0.9 | 792 ± 0.9
x2 = 0.9424 | 799.4 ± 0.7 | 794.3 ± 0.7 | 789.2 ± 0.8 | 784.1 ± 0.8 | 779 ± 0.9 | 773.9 ± 0.9

CNC(C)=O [N-methylacetamide] + CC#N
mass density [kg/m3]
Conditions | 293.15 K | 298.15 K | 303.15 K | 308.15 K | 313.15 K | 318.15 K
x2 = 0 | 958.4 ± 0.9 | 954.2 ± 1 | 950.1 ± 1 | 945.9 ± 1 | 941.7 ± 1.1 | 937.6 ± 1.1
x2 = 0.0637 | 951.5 ± 0.9 | 947.2 ± 1 | 942.9 ± 1 | 938.6 ± 1 | 934.3 ± 1.1 | 930 ± 1.1
x2 = 0.1232 | 944.8 ± 0.9 | 940.3 ± 0.9 | 935.9 ± 1 | 931.4 ± 1 | 927 ± 1.1 | 922.6 ± 1.1
x2 = 0.1926 | 936.5 ± 0.9 | 931.9 ± 0.9 | 927.3 ± 1 | 922.8 ± 1 | 918.2 ± 1.1 | 913.7 ± 1.1
x2 = 0.2665 | 927.2 ± 0.9 | 922.5 ± 0.9 | 917.8 ± 1 | 913.1 ± 1 | 908.4 ± 1 | 903.7 ± 1.1
x2 = 0.3244 | 919.5 ± 0.9 | 914.7 ± 0.9 | 909.9 ± 1 | 905.1 ± 1 | 900.3 ± 1 | 895.5 ± 1.1
x2 = 0.3702 | 913.2 ± 0.9 | 908.3 ± 0.9 | 903.4 ± 0.9 | 898.5 ± 1 | 893.6 ± 1 | 888.7 ± 1.1
x2 = 0.4365 | 903.5 ± 0.8 | 898.5 ± 0.9 | 893.5 ± 0.9 | 888.5 ± 1 | 883.5 ± 1 | 878.5 ± 1
x2 = 0.4925 | 894.7 ± 0.8 | 889.6 ± 0.9 | 884.5 ± 0.9 | 879.4 ± 1 | 874.3 ± 1 | 869.3 ± 1
x2 = 0.5412 | 886.6 ± 0.8 | 881.4 ± 0.9 | 876.2 ± 0.9 | 871.1 ± 0.9 | 865.9 ± 1 | 860.8 ± 1
x2 = 0.58 | 879.8 ± 0.8 | 874.6 ± 0.9 | 869.4 ± 0.9 | 864.2 ± 0.9 | 859 ± 1 | 853.8 ± 1
x2 = 0.6301 | 870.6 ± 0.8 | 865.3 ± 0.8 | 860.1 ± 0.9 | 854.9 ± 0.9 | 849.6 ± 1 | 844.4 ± 1
x2 = 0.6766 | 861.6 ± 0.8 | 856.3 ± 0.8 | 851 ± 0.9 | 845.7 ± 0.9 | 840.4 ± 0.9 | 835.1 ± 1
x2 = 0.7613 | 843.8 ± 0.8 | 838.4 ± 0.8 | 833 ± 0.8 | 827.7 ± 0.9 | 822.3 ± 0.9 | 816.9 ± 1
x2 = 0.8305 | 827.8 ± 0.7 | 822.4 ± 0.8 | 817 ± 0.8 | 811.6 ± 0.9 | 806.2 ± 0.9 | 800.8 ± 0.9
x2 = 0.9203 | 804.8 ± 0.7 | 799.5 ± 0.8 | 794.2 ± 0.8 | 788.8 ± 0.8 | 783.4 ± 0.9 | 778 ± 0.9

CC#N [acetonitrile] + CN(C)C=O
mass density [kg/m3]
Conditions | 293.15 K | 298.15 K | 303.15 K | 308.15 K | 313.15 K | 318.15 K
x1 = 0.0654 | 942 ± 0.9 | 937.5 ± 0.9 | 933 ± 1 | 928.6 ± 1 | 924.1 ± 1 | 919.6 ± 1.1
x1 = 0.1303 | 934.6 ± 0.9 | 930.1 ± 0.9 | 925.6 ± 1 | 921.2 ± 1 | 916.7 ± 1 | 912.2 ± 1.1
x1 = 0.1912 | 927.4 ± 0.9 | 922.9 ± 0.9 | 918.4 ± 0.9 | 914 ± 1 | 909.4 ± 1 | 904.9 ± 1.1
x1 = 0.2586 | 919 ± 0.9 | 914.5 ± 0.9 | 909.9 ± 0.9 | 905.5 ± 1 | 900.9 ± 1 | 896.4 ± 1.1
x1 = 0.3204 | 910.9 ± 0.8 | 906.3 ± 0.9 | 901.7 ± 0.9 | 897.2 ± 1 | 892.6 ± 1 | 888.1 ± 1
x1 = 0.3851 | 902 ± 0.8 | 897.4 ± 0.9 | 892.7 ± 0.9 | 888.2 ± 1 | 883.6 ± 1 | 879 ± 1
x1 = 0.4596 | 891.2 ± 0.8 | 886.5 ± 0.9 | 881.8 ± 0.9 | 877.2 ± 0.9 | 872.5 ± 1 | 867.9 ± 1
x1 = 0.5125 | 883.1 ± 0.8 | 878.4 ± 0.8 | 873.6 ± 0.9 | 869 ± 0.9 | 864.2 ± 1 | 859.5 ± 1
x1 = 0.5925 | 870 ± 0.8 | 865.2 ± 0.8 | 860.4 ± 0.9 | 855.7 ± 0.9 | 850.9 ± 1 | 846.1 ± 1
x1 = 0.6402 | 861.7 ± 0.8 | 856.9 ± 0.8 | 852 ± 0.9 | 847.3 ± 0.9 | 842.5 ± 0.9 | 837.6 ± 1
x1 = 0.6899 | 852.6 ± 0.8 | 847.8 ± 0.8 | 842.9 ± 0.9 | 838.1 ± 0.9 | 833.2 ± 0.9 | 828.3 ± 1
x1 = 0.731 | 844.7 ± 0.8 | 839.8 ± 0.8 | 834.9 ± 0.8 | 830 ± 0.9 | 825.1 ± 0.9 | 820.2 ± 1
x1 = 0.7736 | 836.1 ± 0.8 | 831.1 ± 0.8 | 826.1 ± 0.8 | 821.2 ± 0.9 | 816.3 ± 0.9 | 811.4 ± 1
x1 = 0.8522 | 818.9 ± 0.7 | 813.9 ± 0.8 | 808.9 ± 0.8 | 803.9 ± 0.9 | 798.9 ± 0.9 | 793.9 ± 0.9
x1 = 0.9359 | 798.9 ± 0.7 | 793.8 ± 0.7 | 788.7 ± 0.8 | 783.6 ± 0.8 | 778.5 ± 0.9 | 773.4 ± 0.9
x1 = 1 | 782.1 ± 0.7 | 776.8 ± 0.7 | 771.5 ± 0.8 | 766.3 ± 0.8 | 761 ± 0.8 | 755.7 ± 0.9

NC=O [formamide] + CC#N
mass density [kg/m3]
Conditions | 293.15 K | 298.15 K | 303.15 K | 308.15 K | 313.15 K | 318.15 K
x2 = 0 | 1133 ± 1.2 | 1129 ± 1.2 | 1125 ± 1.2 | 1121 ± 1.3 | 1117 ± 1.3 | 1113 ± 1.4
x2 = 0.0764 | 1104.3 ± 1.1 | 1099.7 ± 1.2 | 1095.1 ± 1.2 | 1090.5 ± 1.2 | 1085.9 ± 1.3 | 1081.3 ± 1.3
x2 = 0.161 | 1073.2 ± 1.1 | 1068.1 ± 1.1 | 1063 ± 1.2 | 1057.9 ± 1.2 | 1052.8 ± 1.2 | 1047.7 ± 1.3
x2 = 0.2485 | 1041.1 ± 1 | 1035.7 ± 1.1 | 1030.3 ± 1.1 | 1024.7 ± 1.2 | 1019.3 ± 1.2 | 1013.9 ± 1.2
x2 = 0.2976 | 1022.9 ± 1 | 1017.3 ± 1 | 1011.7 ± 1.1 | 1006.1 ± 1.1 | 1000.5 ± 1.2 | 994.9 ± 1.2
x2 = 0.3444 | 1005.4 ± 1 | 999.7 ± 1 | 994 ± 1.1 | 988.3 ± 1.1 | 982.6 ± 1.1 | 976.9 ± 1.2
x2 = 0.412 | 980.1 ± 1 | 974.3 ± 1 | 968.5 ± 1 | 962.7 ± 1.1 | 956.9 ± 1.1 | 951.1 ± 1.1
x2 = 0.4728 | 957.8 ± 0.9 | 951.9 ± 1 | 946 ± 1 | 940.2 ± 1 | 934.3 ± 1.1 | 928.3 ± 1.1
x2 = 0.5336 | 935.9 ± 0.9 | 930 ± 0.9 | 924.1 ± 1 | 918.2 ± 1 | 912.3 ± 1 | 906.4 ± 1.1
x2 = 0.5862 | 917.2 ± 0.9 | 911.3 ± 0.9 | 905.4 ± 0.9 | 899.6 ± 1 | 893.7 ± 1 | 887.8 ± 1.1
x2 = 0.6388 | 898.9 ± 0.8 | 893 ± 0.9 | 887.1 ± 0.9 | 881.3 ± 1 | 875.4 ± 1 | 869.5 ± 1
x2 = 0.6994 | 878 ± 0.8 | 872.2 ± 0.9 | 866.4 ± 0.9 | 860.6 ± 0.9 | 854.8 ± 1 | 849 ± 1
x2 = 0.7554 | 859.1 ± 0.8 | 853.4 ± 0.8 | 847.7 ± 0.9 | 842 ± 0.9 | 836.3 ± 0.9 | 830.4 ± 1
x2 = 0.8143 | 839.6 ± 0.8 | 834 ± 0.8 | 828.1 ± 0.8 | 822.6 ± 0.9 | 817 ± 0.9 | 811.4 ± 1
x2 = 0.8754 | 820 ± 0.7 | 814.5 ± 0.8 | 809 ± 0.8 | 803.5 ± 0.9 | 798 ± 0.9 | 792.5 ± 0.9
x2 = 0.9398 | 800.1 ± 0.7 | 794.7 ± 0.8 | 789.2 ± 0.8 | 783.8 ± 0.8 | 778.4 ± 0.9 | 773 ± 0.9

From the NIST ThermoML archive (doi:10.1016/j.jct.2006.01.015)
